# In PubChem BioAssay AID248 (DTP/NCI, 2004):
# Values joined by “and” are separate entries in the source; they are usually repeats but may differ in a detail not shown here. Equal values may be shown once. Toxic doses and inconclusive results are not listed.
# System: L1210 leukemia ip in BDF1 mice, survival T/C
# Experiment: NCI In Vivo Anticancer Drug Screen. Data for tumor model L1210 Leukemia (intraperitoneal) in B6D2F1 (BDF1) mice
# Conditions: endpoint: mean survival time, higher = longer survival
# Summary of the method: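 Tumor was transplanted into mice, which were then dosed with test compound or vehicle alone. Survival was recorded for each group, and the treated figure was expressed relative to the control figure.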
# [1] = dose: 100.0 mg/kg/injection, schedule: Q01DX001 (ip), vehicle: saline
# [2] = dose: 100.0 mg/kg/injection, schedule: Q04DX003 (ip), vehicle: saline
# [3] = dose: 200.0 mg/kg/injection, schedule: Q01DX001 (ip), vehicle: saline
# [4] = dose: 200.0 mg/kg/injection, schedule: Q04DX003 (ip), vehicle: saline
# [5] = dose: 400.0 mg/kg/injection, schedule: Q01DX001 (ip), vehicle: saline
# [6] = dose: 400.0 mg/kg/injection, schedule: Q04DX003 (ip), vehicle: saline
# [7] = dose: 100.0 mg/kg/injection, schedule: Q04DX002 (ip), vehicle: saline with Tween-80
# [8] = dose: 100.0 mg/kg/injection, schedule: Q04DX003 (ip), vehicle: saline with Tween-80
# [9] = dose: 200.0 mg/kg/injection, schedule: Q04DX002 (ip), vehicle: saline with Tween-80
# [10] = dose: 200.0 mg/kg/injection, schedule: Q04DX003 (ip), vehicle: saline with Tween-80
# [11] = dose: 400.0 mg/kg/injection, schedule: Q04DX003 (ip), vehicle: saline with Tween-80
# [12] = dose: 50.0 mg/kg/injection, schedule: Q01DX001 (ip), vehicle: saline
# [13] = dose: 100.0 mg/kg/injection, schedule: Q01DX009 (ip), vehicle: saline with Tween-80
# [14] = dose: 200.0 mg/kg/injection, schedule: Q01DX009 (ip), vehicle: saline with Tween-80
# [15] = dose: 400.0 mg/kg/injection, schedule: Q01DX009 (ip), vehicle: saline with Tween-80
# [16] = dose: 100.0 mg/kg/injection, schedule: Q04DX002 (ip), vehicle: saline
# [17] = dose: 200.0 mg/kg/injection, schedule: Q04DX002 (ip), vehicle: saline
# [18] = dose: 100.0 mg/kg/injection, schedule: Q01DX001 (ip), vehicle: carboxymethylcellulose (CMC)
# [19] = dose: 200.0 mg/kg/injection, schedule: Q01DX001 (ip), vehicle: carboxymethylcellulose (CMC)
smiles,measurement,setting,value
Cc1nnc(NC(=O)C(Cl)(Cl)Cl)s1,T/C,"dose: 100.0 mg/kg/injection, schedule: Q01DX001 (ip), vehicle: other",94 % of control
same,T/C,"dose: 100.0 mg/kg/injection, schedule: Q04DX003 (ip), vehicle: other",96 % of control
same,T/C,"dose: 200.0 mg/kg/injection, schedule: Q01DX001 (ip), vehicle: other",105 % of control
same,T/C,"dose: 200.0 mg/kg/injection, schedule: Q04DX003 (ip), vehicle: other",109 % of control
same,T/C,"dose: 400.0 mg/kg/injection, schedule: Q01DX001 (ip), vehicle: other",104 % of control
same,T/C,"dose: 400.0 mg/kg/injection, schedule: Q04DX003 (ip), vehicle: other",96 % of control
CC1(CS(=O)(=O)c2ccccc2)C(=O)C2CCC1C2 (stereo unspecified),T/C,[1],90 % of control
same,T/C,[2],94 % of control
same,T/C,[3],98 % of control
same,T/C,[4],89 % of control
same,T/C,[5],88 % of control
same,T/C,[6],98 % of control
[Br][Ge]([c]1ccccc1)([c]1ccccc1)[c]1ccccc1,T/C,"dose: 25.0 mg/kg/injection, schedule: Q04DX002 (ip), vehicle: saline with Tween-80",104 % of control
same,T/C,"dose: 50.0 mg/kg/injection, schedule: Q04DX002 (ip), vehicle: saline with Tween-80",96 % of control
same,T/C,[7],104 % of control
same,T/C,[8],94 % of control
same,T/C,[9],93 % of control
same,T/C,[10],94 % of control
same,T/C,[11],90 % of control
O=C(/C=C\C(=O)Nc1ccc(C2=NCCN2)cc1)Nc1ccc(C2=NCCN2)cc1,T/C,"dose: 15.0 mg/kg/injection, schedule: Q01DX Z (ip), vehicle: saline",124 % of control
same,T/C,"dose: 30.0 mg/kg/injection, schedule: Q01DX Z (ip), vehicle: saline",177 % of control
same,T/C,"dose: 30.0 mg/kg/injection, schedule: Q01DX Z (oral), vehicle: saline",103 % of control
same,T/C,"dose: 60.0 mg/kg/injection, schedule: Q01DX Z (ip), vehicle: saline",170 % of control
same,T/C,"dose: 60.0 mg/kg/injection, schedule: Q01DX Z (oral), vehicle: saline",114 % of control
same,T/C,"dose: 120.0 mg/kg/injection, schedule: Q01DX Z (oral), vehicle: saline",103 % of control
same,T/C,"dose: 240.0 mg/kg/injection, schedule: Q01DX Z (oral), vehicle: saline",102 % of control
N=C(N)/C=C\C(=O)O,T/C,"dose: 5.0 mg/kg/injection, schedule: Q01DX Z (ip), vehicle: carboxymethylcellulose (CMC)",93 % of control
same,T/C,"dose: 10.0 mg/kg/injection, schedule: Q01DX Z (ip), vehicle: carboxymethylcellulose (CMC)",103 % of control
same,T/C,"dose: 20.0 mg/kg/injection, schedule: Q01DX Z (ip), vehicle: carboxymethylcellulose (CMC)",101 % of control
CC(=O)[C@@]1(O)CC[C@H]2[C@@H]3C=C(C)C4=CC(=O)C=C[C@]4(C)[C@@]3(F)[C@@H](O)C[C@@]21C,T/C,"dose: 50.0 mg/kg/injection, schedule: Q01DX001 (sc), vehicle: steriod suspending solution",96 % of control
same,T/C,"dose: 100.0 mg/kg/injection, schedule: Q01DX001 (sc), vehicle: steriod suspending solution",102 % of control
same,T/C,"dose: 200.0 mg/kg/injection, schedule: Q01DX001 (sc), vehicle: steriod suspending solution",105 % of control
same,T/C,"dose: 400.0 mg/kg/injection, schedule: Q01DX001 (sc), vehicle: steriod suspending solution",118 % of control
CCOC(=O)N1C(c2ccccc2)N(c2ccccc2)C(c2ccccc2)N1C(=O)OCC (stereo unspecified),T/C,[12],108 % of control
same,T/C,[1],103 % of control
same,T/C,[3],108 % of control
same,T/C,[5],103 % of control
O=P(Oc1ccc(S(=O)(=O)c2ccccc2)cc1)(Oc1ccc(S(=O)(=O)c2ccccc2)cc1)Oc1ccc(S(=O)(=O)c2ccccc2)cc1,T/C,[13],90 % of control
same,T/C,[8],90 % of control
same,T/C,[14],93 % of control
same,T/C,[10],91 % of control
same,T/C,[15],91 % of control
same,T/C,[11],95 % of control
Cc1ccc(CC(=O)c2c[nH]c3ccccc23)c(Cl)c1C,T/C,[12],96 % of control
same,T/C,[1],98 % of control
same,T/C,[3],93 % of control
same,T/C,[5],98 % of control
Cc1ncc(CO)c2c1OC1=CCCCC1=C2,T/C,[7],95 % of control
same,T/C,[9],92 % of control
C=CCc1cc(Nc2c3ccc(Cl)cc3nc3ccc(OC)cc23)cc(CN(CC)CC)c1O,T/C,"dose: 50.0 mg/kg/injection, schedule: Q04DX002 (ip), vehicle: saline",106 % of control
same,T/C,[16],98 % of control
same,T/C,[17],98 % of control
C=C1C(=O)OC2CCC(O)C12 (stereo unspecified),T/C,"dose: 25.0 mg/kg/injection, schedule: Q01DX001 (ip), vehicle: saline",94 % of control
same,T/C,[12],108 % of control
same,T/C,[1],105 % of control
CC(C)(C)NCC1C(c2ccccc2)C1c1ccccc1 (stereo unspecified),T/C,"dose: 25.0 mg/kg/injection, schedule: Q04DX002 (ip), vehicle: Klucel (hydroxypropylcellulose) (HPC)",92 % of control
same,T/C,"dose: 50.0 mg/kg/injection, schedule: Q04DX002 (ip), vehicle: Klucel (hydroxypropylcellulose) (HPC)",88 % of control
O=[N+]([O-])c1ccc(N=Nc2ccc(O)cc2)c([N+](=O)[O-])c1,T/C,"dose: 50.0 mg/kg/injection, schedule: Q01DX001 (ip), vehicle: carboxymethylcellulose (CMC)",100 % of control
same,T/C,[18],106 % of control
same,T/C,[19],105 % of control
O=C1NC(C2CCC3CN32)C(=O)NC1C1CCC2CN21 (stereo unspecified),T/C,"dose: 0.2 mg/kg/injection, schedule: Q01DX009 (ip), vehicle: saline",102 % of control and 105 % of control
same,T/C,"dose: 0.4 mg/kg/injection, schedule: Q01DX009 (ip), vehicle: saline",110 % of control and 113 % of control
same,T/C,"dose: 0.5 mg/kg/injection, schedule: Q01DX001 (ip), vehicle: Klucel (hydroxypropylcellulose) (HPC)",101 % of control
same,T/C,"dose: 0.8 mg/kg/injection, schedule: Q01DX009 (ip), vehicle: saline",110 % of control
same,T/C,"dose: 1.0 mg/kg/injection, schedule: Q01DX001 (ip), vehicle: Klucel (hydroxypropylcellulose) (HPC)",101 % of control
same,T/C,"dose: 1.1 mg/kg/injection, schedule: Q01DX009 (ip), vehicle: saline",112 % of control
same,T/C,"dose: 2.0 mg/kg/injection, schedule: Q01DX001 (ip), vehicle: Klucel (hydroxypropylcellulose) (HPC)",151 % of control
same,T/C,"dose: 2.7 mg/kg/injection, schedule: Q01DX009 (ip), vehicle: saline",163 % of control
same,T/C,"dose: 5.0 mg/kg/injection, schedule: Q01DX009 (ip), vehicle: saline",182 % of control
same,T/C,"dose: 10.0 mg/kg/injection, schedule: Q01DX009 (ip), vehicle: saline",103 % of control
same,T/C,"dose: 16.0 mg/kg/injection, schedule: Q01DX001 (ip), vehicle: Klucel (hydroxypropylcellulose) (HPC)",164 % of control and 271 % of control
same,T/C,"dose: 24.0 mg/kg/injection, schedule: Q01DX001 (ip), vehicle: Klucel (hydroxypropylcellulose) (HPC)",169 % of control
same,T/C,"dose: 36.0 mg/kg/injection, schedule: Q01DX001 (ip), vehicle: Klucel (hydroxypropylcellulose) (HPC)",101 % of control
COc1ccc(OC)c2c(C(O)CNC34CC5CC(CC(C5)C3)C4)cc(-c3ccc(Cl)cc3)nc12 (stereo unspecified),T/C,[2],97 % of control
same,T/C,[4],92 % of control
same,T/C,[6],92 % of control
CCCC(Sc1ncnc2nc[nH]c12)C(=O)O (stereo unspecified),T/C,[18],95 % of control
same,T/C,[19],98 % of control
same,T/C,"dose: 400.0 mg/kg/injection, schedule: Q01DX001 (ip), vehicle: carboxymethylcellulose (CMC)",103 % of control
COCc1ccc(C(=O)O)cc1,T/C,"dose: 100.0 mg/kg/injection, schedule: Q01DX009 (ip), vehicle: gum acacia",101 % of control
same,T/C,"dose: 200.0 mg/kg/injection, schedule: Q01DX009 (ip), vehicle: gum acacia",97 % of control
same,T/C,"dose: 400.0 mg/kg/injection, schedule: Q01DX009 (ip), vehicle: gum acacia",101 % of control
CC(=O)OCCn1c([N+](=O)[O-])cnc1/C=[N+](/[O-])CCO,T/C,[16],111 % of control
same,T/C,[17],100 % of control
same,T/C,"dose: 400.0 mg/kg/injection, schedule: Q04DX002 (ip), vehicle: saline",100 % of control
CNc1ccc(C(=O)c2ccccc2C(=O)O)cc1[N+](=O)[O-],T/C,[13],92 % of control
same,T/C,[8],97 % of control
same,T/C,[14],95 % of control
same,T/C,[10],89 % of control
same,T/C,[15],93 % of control
same,T/C,[11],94 % of control
